The values below come from article PMC11465516, “Kinetic and Structural Studies of the Plastidial Solanum tuberosum Phosphorylase” (ACS Omega, 2024).

Read-outs that look alike come from different tables or passages of the source.

Assay [1] has as its target T1, stPho1 (plastidial Solanum tuberosum phosphorylase) (Solanum tuberosum, UniProt P04045).
T1 construct: stPho1 was purified from a natural source; from tissue; host or cells: Solanum tuberosum mature tubers
T1 sequence (P04045 51-966): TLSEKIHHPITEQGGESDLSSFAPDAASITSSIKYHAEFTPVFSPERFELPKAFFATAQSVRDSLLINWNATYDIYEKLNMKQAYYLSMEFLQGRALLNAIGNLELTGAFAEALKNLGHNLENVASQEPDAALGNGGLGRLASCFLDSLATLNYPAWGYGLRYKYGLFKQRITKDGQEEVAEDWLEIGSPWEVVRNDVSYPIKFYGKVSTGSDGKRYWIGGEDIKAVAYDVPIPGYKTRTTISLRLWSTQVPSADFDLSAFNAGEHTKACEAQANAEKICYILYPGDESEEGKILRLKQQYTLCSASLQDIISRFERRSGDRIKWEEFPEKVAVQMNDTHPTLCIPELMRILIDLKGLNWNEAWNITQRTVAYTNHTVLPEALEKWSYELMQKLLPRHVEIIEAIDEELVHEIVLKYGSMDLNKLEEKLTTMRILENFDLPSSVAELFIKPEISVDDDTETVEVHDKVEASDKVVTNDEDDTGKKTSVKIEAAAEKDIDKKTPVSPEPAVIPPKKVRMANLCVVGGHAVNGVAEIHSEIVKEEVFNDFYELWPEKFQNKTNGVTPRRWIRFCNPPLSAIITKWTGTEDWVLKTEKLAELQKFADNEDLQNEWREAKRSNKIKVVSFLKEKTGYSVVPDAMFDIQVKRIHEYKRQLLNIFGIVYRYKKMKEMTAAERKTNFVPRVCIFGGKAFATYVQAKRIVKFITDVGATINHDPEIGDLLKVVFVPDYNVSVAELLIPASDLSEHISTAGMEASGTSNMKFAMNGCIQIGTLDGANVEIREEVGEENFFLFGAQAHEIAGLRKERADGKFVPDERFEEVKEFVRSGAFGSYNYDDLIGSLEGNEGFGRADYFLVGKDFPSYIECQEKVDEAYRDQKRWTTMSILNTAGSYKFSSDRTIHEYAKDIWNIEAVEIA
Nature of the assay: stPho1 enzyme kinetics in the direction of glycogen synthesis. The class given is biochemical. The text has this:
(§1) In vitro, stPho1 can perform the reverse reaction in the presence of higher concentrations of Glc-1-P, where the enzyme adds glucose residues on glucans with direct release of orthophosphate ions, which can then be measured spectrophotometrically using the method of Saheki et al.[47] Starch granules are composed of two distinct glucose polymers, amylose and amylopectin.[48] Amylopectin is the major polymer in starch and has α-1,4-linked glucose chains with α-1,6-linked branches every 24–30 glucose units, whereas amylose is composed of long α-1,4-linked linear chains. Kinetic studies were performed using glycogen, whose structure is very similar to that of amylopectin but with more branches (every 8–12 glucose units) due to better solubility. Enzyme assays were performed at 30 °C in the direction of glycogen synthesis using 30 μg/mL of stPho1 or ΔPho1 in a 20 mM sodium citrate buffer (pH 6.0) containing 60 mM KCl, 0.6 mM ethylenediaminetetraacetic acid (EDTA), and 0.6 mM dithiothreitol, using constant concentrations of glycogen (0.2% w/v) and various concentrations of Glc-1-P (3, 4, 6, 10, and 15 mM for stPho1 and 1, 2, 3, 4, 6 mM for stPho1ΔL78) and inhibitors. Initial velocities were calculated from the pseudo-first-order rate constants (k) using the first-order rate equation ([A] = [A]0e^–kt), where [A]0 and [A] are the initial concentration of the sample and the sample’s concentration at various times, respectively, and t is the corresponding time (min) following a previously established protocol,[54] and the nonlinear regression program GraFit[50] with an explicit value was used for calculating the standard deviation of each point.[49]
(§2) To establish the optimum pH and temperature for enzyme activity, we first measured the enzymatic activity in the 4.5–8.5 pH range. Kinetic studies were performed in the direction of glycogen synthesis using 50 μg/mL of stPho1 using six different buffers (20 mM sodium acetate buffer for pH 4.5 and 5.5, 20 mM sodium citrate buffer for pH 6.0 and 6.5, and 20 mM Tris–HCl for pH 7.5 and 8.5) containing 60 mM KCl, 0.6 mM EDTA, and 0.6 mM dithiothreitol, using constant concentrations of glycogen (0.2% w/v) and Glc-1-P (14 mM) at 30 °C. […] To determine the optimum temperature for the activity, enzymatic assays were performed at temperatures 20, 30, 37, and 45 °C. Kinetic studies were performed in the direction of glycogen synthesis using 50 μg/mL of stPho1 in a 20 mM sodium citrate buffer (pH 6.0) containing 60 mM KCl, 0.6 mM EDTA, and 0.6 mM dithiothreitol, using constant concentrations of glycogen (0.2% w/v) and Glc-1-P (4 mM). […] Since mammalian muscle phosphorylase activity is dependent on the presence of the allosteric activator AMP,[35] we investigated whether the presence of AMP affects the stPho1 enzymatic activity. The effect was tested with 1 mM AMP, using 30 μg/mL of stPho1 in 20 mM sodium citrate buffer (pH 6.0) containing 60 mM KCl, 0.6 mM EDTA, and 0.6 mM dithiothreitol, using a saturating concentration of glycogen (0.2% w/v) and various concentrations of Glc-1-P (3, 6, 10, and 15 mM).

For assay [2], the system named is rabbit muscle glycogen phosphorylase b (rmGPb). Particulars: cited from earlier work.
Assay [3] has as its target T2, stPho1ΔL78 (Solanum tuberosum, UniProt P04045).
T2 construct: the N-terminal (residues 23–446) and the C-terminal (residues 511–916); from tissue; host or cells: Solanum tuberosum mature tubers; purified stPho1 left about 4 weeks at room temperature to proteolyse
Nature of the assay: stPho1ΔL78 enzyme kinetics in the direction of glycogen synthesis. Type of assay: biochemical.
Text: as §1, §2

The target in assay [4] is rmGPa. Also on record: method as in PMID 12930991, PMID 3805034, PMID 624732. Particulars: cited from earlier work.
Assay [5] has as its target mammalian enzyme (GP). On the set-up: method as in PMID 32771768. The conditions noted are these: cited from earlier work.
Assay [6] concerns stPho1ΔL78. Briefly: stPho1ΔL78 enzyme kinetics in the direction of glycogen synthesis. Particulars: direction of glycan synthesis. Type of assay: biochemical, Solanum tuberosum.
Text: as §1, §2

[7] abbreviates: 30 °C, pH 6.0, glycogen 0.2% w/v.
Setting [8] is: 30 °C, pH 6.0, glycogen 0.2% w/v, read-out: Km Glc-1-P.
Setting [9] is: 30 °C, pH 6.0, glycogen 0.2% w/v, various Glc-1-P, read-out: Ki.

Take `Nc1ncnc2c1ncn2[C@@H]1O[C@H](COP(=O)(O)O)[C@@H](O)[C@H]1O` [AMP]: the “Effect on stPho1 enzymatic activity (Vmax, Km)” value in assay [1] (1 mM AMP, glycogen 0.2% w/v, Glc-1-P 3-15 mM) is “does not have any effect”.

As to `O=P(O)(O)O[C@H]1O[C@H](CO)[C@@H](O)[C@H](O)[C@H]1O` [Glc-1-P, glucose-1-phosphate], the “Vmax Glc-1-P + 1 mM AMP” value in assay [2] (+ 1 mM AMP) is 64[63] μmol/min/mg; in assay [1] (+ 1 mM AMP, pH 6.0, glycogen 0.2% w/v) it was 0.39 ± 0.01 µmol/min/mg. Moreover, the “Vmax Glc-1-P” value in assay [2] was 2.9[63] μmol/min/mg; in assay [3] (setting [7]), 0.32 ± 0.02 µmol/min/mg; in assay [1] (setting [7]) it was 0.37 ± 0.01 µmol/min/mg. For the same molecule, the Km in assay [2] (read-out: Km Glc-1-P + 1 mM AMP, + 1 mM AMP) is 9000 µM; in assay [2] (read-out: Km Glc-1-P) it was 28000 µM; in assay [3] (setting [8]), 1400 ± 200 µM; in assay [1] (setting [8]) it was 2300 ± 200 µM; in assay [1] (read-out: Km Glc-1-P + 1 mM AMP, + 1 mM AMP, pH 6.0, glycogen 0.2% w/v), 2400 ± 200 µM.

On to `C[C@H]1O[C@H](O[C@H]2[C@H](O)[C@@H](O)[C@@H](O[C@H]3[C@H](O)[C@@H](O)C(O)O[C@@H]3CO)O[C@@H]2CO)[C@H](O)[C@@H](O)[C@@H]1N[C@H]1C=C(CO)[C@@H](O)[C@H](O)[C@H]1O` (some centres unmarked) [acarbose], for which the Ki in assay [4] was 26 mM.

Consider `Cn1c(=O)c2c(ncn2C)n(C)c1=O` [caffeine], for which the Ki in assay [2] (in the presence of 1 mM AMP) is 0.13 mM.

Turning to `O=c1c(O)c(-c2ccc(O)c(O)c2)oc2cc(O)cc(O)c12` [quercetin], the “Effect on the enzymatic activity of stPho1” value in assay [1] (up to a concentration of 1 mM) is “did not have any effect”. Further, the inhibition constant Ki in assay [5] was 0.032 to 0.069 mM.

Regarding `OC[C@H]1O[C@H](O)[C@H](O)[C@@H](O)[C@@H]1O` [α-D-glucose], the Ki is 3.2 mM in assay [2] (in the presence of 1 mM AMP), 38.4 ± 1.5 mM in assay [3] (setting [9]) and 42.8 ± 2.6 mM in assay [1] (setting [9]).

On to `OC[C@H]1O[C@@H]2O[C@H]3[C@H](O)[C@@H](O)[C@@H](O[C@H]4[C@H](O)[C@@H](O)[C@@H](O[C@H]5[C@H](O)[C@@H](O)[C@@H](O[C@H]6[C@H](O)[C@@H](O)[C@@H](O[C@H]7[C@H](O)[C@@H](O)[C@@H](O[C@H]1[C@H](O)[C@H]2O)O[C@@H]7CO)O[C@@H]6CO)O[C@@H]5CO)O[C@@H]4CO)O[C@@H]3CO` [α-cyclodextrin], for which, in assay [2] (glycogen storage site ligands), the Ki is 47.1 mM.

Take `OC[C@H]1O[C@@H]2O[C@H]3[C@H](O)[C@@H](O)[C@@H](O[C@H]4[C@H](O)[C@@H](O)[C@@H](O[C@H]5[C@H](O)[C@@H](O)[C@@H](O[C@H]6[C@H](O)[C@@H](O)[C@@H](O[C@H]7[C@H](O)[C@@H](O)[C@@H](O[C@H]8[C@H](O)[C@@H](O)[C@@H](O[C@H]1[C@H](O)[C@H]2O)O[C@@H]8CO)O[C@@H]7CO)O[C@@H]6CO)O[C@@H]5CO)O[C@@H]4CO)O[C@@H]3CO` [β-cyclodextrin]: the Ki was 14.1 mM in assay [2] (in the presence of 1 mM AMP), 0.031 ± 0.001 mM in assay [3] and 0.0731 ± 0.0059 mM in assay [1]. In addition, the “Binding strength in stPho1 relative to rmGPb” value in assay [1] (stPho1 forms vs rmGPb) is 200–450 times.

For the molecule `OC[C@H]1O[C@@H]2O[C@H]3[C@H](O)[C@@H](O)[C@@H](O[C@H]4[C@H](O)[C@@H](O)[C@@H](O[C@H]5[C@H](O)[C@@H](O)[C@@H](O[C@H]6[C@H](O)[C@@H](O)[C@@H](O[C@H]7[C@H](O)[C@@H](O)[C@@H](O[C@H]8[C@H](O)[C@@H](O)[C@@H](O[C@H]9[C@H](O)[C@@H](O)[C@@H](O[C@H]1[C@H](O)[C@H]2O)O[C@@H]9CO)O[C@@H]8CO)O[C@@H]7CO)O[C@@H]6CO)O[C@@H]5CO)O[C@@H]4CO)O[C@@H]3CO` [γ-cyclodextrin], in assay [2] (glycogen storage site ligands), the Ki was 7.4 mM.

For the molecule glycogen, the “Km × 1000 glycogen” value was 12^1[63] % in assay [2]; 60 ± 9% in assay [3] (30 °C, pH 6.0); 114.2 ± 7.6% in assay [1] (30 °C, pH 6.0). The “Affinity of stPho1ΔL78 relative to stPho1” value in assay [6] is 2 times.

With maltoheptaose [maltoheptaose (G7)], the Ki in assay [2] (glycogen storage site ligands) is 1 mM.
